Data reported in PubChem BioAssay (NCI).
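Five compound concentrations were applied to cells in 96-well plates for 48 hours; endpoints were derived by simple linear interpolation of the resulting dose-response curve. GI50: concentration for 50% inhibition of growth. At the TGI there is no net growth.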

Columns and labels:
Test in all cases: NCI-60 cell line screen, 48 h
HOP-92 NSCLC = tested on: HOP-92 NSCLC
NCI-H226 lung = tested on: NCI-H226 lung
SK-MEL-5 melanoma = tested on: SK-MEL-5 melanoma
SR leukemia = tested on: SR leukemia
IGROV1 ovarian = tested on: IGROV1 ovarian
OVCAR-8 ovarian = tested on: OVCAR-8 ovarian
CCRF-CEM leukemia = tested on: CCRF-CEM leukemia
HS 578T breast = tested on: HS 578T breast
PC-3 prostate = tested on: PC-3 prostate
OVCAR-5 ovarian = tested on: OVCAR-5 ovarian
SK-OV-3 ovarian = tested on: SK-OV-3 ovarian
T-47D breast = tested on: T-47D breast
HCT-116 colon = tested on: HCT-116 colon
MDA-MB-435 = tested on: MDA-MB-435
NCI-H23 lung = tested on: NCI-H23 lung
HT29 colon = tested on: HT29 colon
SK-MEL-28 melanoma = tested on: SK-MEL-28 melanoma
SK-MEL-2 melanoma = tested on: SK-MEL-2 melanoma
NCI-H522 lung = tested on: NCI-H522 lung
RPMI-8226 leukemia = tested on: RPMI-8226 leukemia
UACC-62 melanoma = tested on: UACC-62 melanoma
ACHN renal = tested on: ACHN renal
SF-539 CNS = tested on: SF-539 CNS
786-0 renal = tested on: 786-0 renal
CAKI-1 renal = tested on: CAKI-1 renal
A549 NSCLC = tested on: A549 NSCLC
SNB-19 CNS = tested on: SNB-19 CNS
OVCAR-3 ovarian = tested on: OVCAR-3 ovarian
NCI-H460 lung = tested on: NCI-H460 lung
TK-10 renal = tested on: TK-10 renal
U251 CNS = tested on: U251 CNS
M14 melanoma = tested on: M14 melanoma
SN12C renal = tested on: SN12C renal
HCT-15 colon = tested on: HCT-15 colon
UACC-257 melanoma = tested on: UACC-257 melanoma
HL-60(TB) leukemia = tested on: HL-60(TB) leukemia
MCF7 breast = tested on: MCF7 breast
HCC-2998 colon = tested on: HCC-2998 colon
KM12 colon = tested on: KM12 colon
SW-620 colon = tested on: SW-620 colon
UO-31 renal = tested on: UO-31 renal
RXF 393 renal = tested on: RXF 393 renal
K-562 leukemia = tested on: K-562 leukemia
SF-268 CNS = tested on: SF-268 CNS
OVCAR-4 ovarian = tested on: OVCAR-4 ovarian
HOP-62 NSCLC = tested on: HOP-62 NSCLC
MALME-3M melanoma = tested on: MALME-3M melanoma
BT-549 breast = tested on: BT-549 breast
SNB-75 CNS = tested on: SNB-75 CNS
SF-295 CNS = tested on: SF-295 CNS
DU-145 prostate = tested on: DU-145 prostate
NCI/ADR-RES ovarian = tested on: NCI/ADR-RES ovarian
EKVX NSCLC = tested on: EKVX NSCLC
A498 renal = tested on: A498 renal
MDA-MB-231 breast = tested on: MDA-MB-231 breast
COLO 205 colon = tested on: COLO 205 colon
LOX IMVI melanoma = tested on: LOX IMVI melanoma
MOLT-4 leukemia = tested on: MOLT-4 leukemia
MDA-N = tested on: MDA-N

## Cc1cccc(/C=C2/C(=O)Nc3ccccc32)n1
HOP-92 NSCLC
  TGI: 31.3 µM
NCI-H226 lung
  GI50: 14.6 µM
  TGI: 35.9 µM
SK-MEL-5 melanoma
  TGI: 26.3 µM
SR leukemia
  GI50: 2110 nM
  TGI: 7.3 µM
IGROV1 ovarian
  GI50: 24.4 µM
  TGI: > 100000 nM
OVCAR-8 ovarian
  TGI: > 80300 nM
CCRF-CEM leukemia
  TGI: > 85.9 µM
HS 578T breast
  TGI: > 80.1 µM
PC-3 prostate
  TGI: > 60900 nM
OVCAR-5 ovarian
  TGI: 27 µM
SK-OV-3 ovarian
  TGI: 52 µM
T-47D breast
  TGI: 34.2 µM
HCT-116 colon
  TGI: 26.2 µM
MDA-MB-435
  TGI: 60.9 µM
NCI-H23 lung
  TGI: 28.9 µM
HT29 colon
  TGI: > 100000 nM
SK-MEL-28 melanoma
  TGI: > 100000 nM
SK-MEL-2 melanoma
  TGI: 36.4 µM
NCI-H522 lung
  TGI: 34.7 µM
RPMI-8226 leukemia
  TGI: 46.5 µM
UACC-62 melanoma
  GI50: 10.2 µM
  TGI: 25.8 µM
ACHN renal
  TGI: > 82.1 µM
SF-539 CNS
  TGI: 51.4 µM
786-0 renal
  TGI: 27.3 µM
CAKI-1 renal
  TGI: 37.8 µM
A549 NSCLC
  TGI: > 85 µM
SNB-19 CNS
  TGI: > 58.9 µM
OVCAR-3 ovarian
  TGI: 39.3 µM
NCI-H460 lung
  TGI: > 81.2 µM
TK-10 renal
  TGI: 33.7 µM
U251 CNS
  TGI: > 65900 nM
M14 melanoma
  TGI: 31.2 µM
SN12C renal
  TGI: 37.9 µM
HCT-15 colon
  TGI: > 68.9 µM
UACC-257 melanoma
  TGI: 30.1 µM
HL-60(TB) leukemia
  TGI: 39.8 µM
MCF7 breast
  TGI: 30.3 µM
HCC-2998 colon
  TGI: 22.4 µM
KM12 colon
  TGI: 35.4 µM
SW-620 colon
  TGI: 49.7 µM
UO-31 renal
  TGI: 30.1 µM
RXF 393 renal
  TGI: 27.2 µM
K-562 leukemia
  TGI: 40.4 µM
SF-268 CNS
  TGI: 42.5 µM
OVCAR-4 ovarian
  TGI: 56.7 µM
HOP-62 NSCLC
  TGI: 33.3 µM
MALME-3M melanoma
  TGI: 49.1 µM
BT-549 breast
  TGI: 68.6 µM
SNB-75 CNS
  TGI: > 100 µM
SF-295 CNS
  TGI: 54.4 µM
DU-145 prostate
  TGI: 32.9 µM
NCI/ADR-RES ovarian
  TGI: 53.2 µM
EKVX NSCLC
  TGI: 71.9 µM
A498 renal
  TGI: 46.9 µM
MDA-MB-231 breast
  GI50: 11.6 µM
  TGI: 34.3 µM
COLO 205 colon
  TGI: > 57000 nM
LOX IMVI melanoma
  TGI: > 62.6 µM
MOLT-4 leukemia
  TGI: 44.5 µM

## CC[C@H]1C=CCC[C@@]2(C[C@@H]3CC[C@H]4[C@@H](C(=O)OCCCCCCCCCCCCCCCC(=O)N(CCCNC(C)=O)C[C@H](CCNC(C)=O)OC(C)=O)[C@@]5(CCC[C@@H](C)O5)NC(=[N+]34)N2)O1
HOP-92 NSCLC
  TGI: 2.43 µM
NCI-H226 lung
  TGI: 2.94 µM
SK-MEL-5 melanoma
  TGI: 2.57 µM
SR leukemia
  TGI: 3.35 µM
IGROV1 ovarian
  TGI: 2660 nM
OVCAR-8 ovarian
  TGI: 2900 nM
HS 578T breast
  TGI: 4.83 µM
MDA-N
  TGI: 3.05 µM
PC-3 prostate
  TGI: 2260 nM
OVCAR-5 ovarian
  TGI: 2.96 µM
SK-OV-3 ovarian
  TGI: 3.12 µM
HCT-116 colon
  TGI: 2.92 µM
MDA-MB-435
  TGI: 3 µM
NCI-H23 lung
  TGI: 3.19 µM
HT29 colon
  TGI: 2700 nM
SK-MEL-28 melanoma
  TGI: 2630 nM
SK-MEL-2 melanoma
  TGI: 3.31 µM
NCI-H522 lung
  TGI: 2.63 µM
RPMI-8226 leukemia
  TGI: 0.554 µM
UACC-62 melanoma
  TGI: 3.52 µM
ACHN renal
  TGI: 3.3 µM
SF-539 CNS
  TGI: 2.87 µM
786-0 renal
  TGI: 3.4 µM
CAKI-1 renal
  TGI: 5.08 µM
A549 NSCLC
  TGI: 3.42 µM
SNB-19 CNS
  TGI: 3.07 µM
OVCAR-3 ovarian
  TGI: 2.03 µM
NCI-H460 lung
  TGI: 3.25 µM
TK-10 renal
  TGI: 2.99 µM
U251 CNS
  TGI: 2110 nM
M14 melanoma
  TGI: 3.24 µM
SN12C renal
  TGI: 3.54 µM
HCT-15 colon
  TGI: 3.17 µM
UACC-257 melanoma
  TGI: 2.68 µM
HL-60(TB) leukemia
  TGI: 2.91 µM
MCF7 breast
  TGI: 2.98 µM
HCC-2998 colon
  TGI: 2.62 µM
KM12 colon
  TGI: 2.67 µM
SW-620 colon
  TGI: 3.25 µM
UO-31 renal
  TGI: 3.16 µM
RXF 393 renal
  TGI: 3.44 µM
K-562 leukemia
  TGI: 2.41 µM
SF-268 CNS
  TGI: 3.38 µM
OVCAR-4 ovarian
  TGI: 3.16 µM
HOP-62 NSCLC
  TGI: 3.42 µM
MALME-3M melanoma
  TGI: 2.99 µM
BT-549 breast
  TGI: 3.5 µM
SF-295 CNS
  TGI: 3.32 µM
DU-145 prostate
  TGI: 2.9 µM
EKVX NSCLC
  TGI: 2.09 µM
A498 renal
  TGI: 3.27 µM
COLO 205 colon
  TGI: 2670 nM
LOX IMVI melanoma
  TGI: 3.16 µM
MOLT-4 leukemia
  TGI: 2.99 µM
